Test results published in patent publication US9193695B2, “1, 2, 4-triazolone derivative and use thereof as an antagonist on the arginine-vasopressin 1B receptor” (TAISHO PHARMACEUTICAL CO., LTD., priority 2010, dated 2015).

Legend:
Human V1b receptor [1] = target: T1, Human V1b receptor (Homo sapiens, UniProt P47901); experiment: Binding test for V1b receptor ([3H]AVP displacement, crude membrane preparation); parameters: expressed in transfected cells; host or cells: 293FT cells (Invitrogen), transient expression; crude membrane preparation; conditions: [3H]AVP 0.4 to 1 nmol/L; membranes of 293FT cells transiently expressing human V1b receptor; room temperature, 60 minutes
T1 sequence (P47901 1-424): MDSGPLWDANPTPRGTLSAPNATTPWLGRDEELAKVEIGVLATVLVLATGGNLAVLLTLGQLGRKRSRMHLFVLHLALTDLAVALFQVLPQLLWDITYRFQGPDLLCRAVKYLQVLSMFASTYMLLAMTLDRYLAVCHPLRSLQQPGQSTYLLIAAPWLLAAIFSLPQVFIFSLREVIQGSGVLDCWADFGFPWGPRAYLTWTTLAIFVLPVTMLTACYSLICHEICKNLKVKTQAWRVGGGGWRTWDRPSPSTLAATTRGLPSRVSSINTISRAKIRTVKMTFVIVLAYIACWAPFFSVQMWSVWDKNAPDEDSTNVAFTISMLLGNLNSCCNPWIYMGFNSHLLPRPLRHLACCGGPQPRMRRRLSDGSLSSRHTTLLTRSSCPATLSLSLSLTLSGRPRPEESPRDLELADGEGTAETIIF
Summary of the method: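 Crude membranes from 293FT cells transiently expressing human V1b, in 50 mmol/L Tris-HCl pH 7.4 with 10 mmol/L MgCl2 and 0.1% BSA, incubated with compound (0.01 nmol/L–1 μmol/L) and [3H]AVP (0.4–1 nmol/L) for 60 min at room temperature. Filter-bound radioactivity counted; 10 μmol/L unlabeled AVP defined 0%. IC50 from dose-response curve.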

Human V1b receptor [2] = target: T1, Human V1b receptor; experiment: Measurement of V1b receptor antagonistic activity (AVP-induced fluorescence, Fluo-4, FDSS); format: cell-based; parameters: expressed in transfected cells
Procedure: Measurement of V1b Receptor Antagonistic Activity
CHO cells (ATCC) stably expressing human V1b receptor were cultured in Ham's F-12 medium (containing 10% FBS and 0.5 mg/mL Geneticin). The cells were seeded the day before the test at 20,000 cells/well in a 96-well poly-D-lysine coated black plate. On the day of the test, the culture medium was removed, and a loading solution (1×HBSS, 10 mmol/L HEPES, 0.1% bovine serum albumin, 1.25 mmol/L Probenecid, 0.02% Pluronic F-127, 1.5 μmol/L Fluo-4-AM, pH 7.4) was added to each well, followed by incubation in a CO2 incubator for 1 hour. After the incubation, the loading solution was removed. A test solution (1×HBSS, 10 mmol/L HEPES, 0.1% bovine serum albumin, 1.25 mmol/L Probenecid, pH 7.4) containing any one of test compounds was added to wells, followed by incubation in a CO2 incubator for 30 minutes. The test compound was serially diluted with DMSO so as to be assayed at a final concentration of 0.1 nmol/L to 1 μmol/L. After the incubation, measurement of fluorescence intensity levels and addition of AVP were performed with Functional Drug Screening System (FDSS, Hamamatsu Photonics K.K.). […] The fluorescence level in the well not containing any test compound and AVP was defined as 0%, and the fluorescence level in the well not containing any test compound but containing AVP was defined as 100%. A dose-response curve was plotted from fluorescence levels after the addition of AVP in the presence of a test compound at various concentrations, and the 50% inhibitory concentration (IC50 value) of the compound was calculated.

[3] = CHO cells stably expressing human V1b receptor, AVP 2.5 nmol/L, 30 minutes preincubation, read-out: IC50 value (V1b receptor antagonistic activity)

| SMILES | IC50 (Human V1b receptor [1]) [µM] | IC50 (Human V1b receptor [2]; [3]) [µM] | IC50 (Human V1b receptor [2]) [µM] |
| --- | --- | --- | --- |
| COc1cc(-c2nn(-c3ccc(CCN4C5CCC4CC(O)C5)cc3)c(=O)n2CC(=O)NC(C)C)ccc1F (centres unmarked) [Ca-3, 2-[3-(4-Fluoro-3-methoxyphenyl)-1-{4-[2-(3-hydroxy-8-azabicyclo[3.2.1]oct-8-yl)ethyl]phenyl}-5-oxo-1,5-dihydro-4H-1,2,4-triazol-4-yl]-N-(propan-2-yl)acetamide] | 0.006 | 0.016 |  |
| CC(C)NC(=O)Cn1c(-c2cccc(Cl)c2)nn(-c2ccc(CCN3C4CCC3COC4)cn2)c1=O [Ab-5, 2-[3-(3-Chlorophenyl)-1-{5-[2-(3-oxa-8-azabicyclo[3.2.1]oct-8-yl)ethyl]pyridin-2-yl}-5-oxo-1,5-dihydro-4H-1,2,4-triazol-4-yl]-N-(propan-2-yl)acetamide] | 0.0086 | 0.029 |  |
| CC(C)NC(=O)Cn1c(-c2ccc(F)c(Cl)c2)nn(-c2ccc(CCN3C4CCC3COC4)cc2)c1=O [Da-5, 2-[3-(3-Chloro-4-fluorophenyl)-1-{4-[2-(3-oxa-8-azabicyclo[3.2.1]oct-8-yl)ethyl]phenyl}-5-oxo-1,5-dihydro-4H-1,2,4-triazol-4-yl]-N-(propan-2-yl)acetamide] | 0.0025 | 0.006 |  |
| CC(C)NC(=O)Cn1c(-c2cccc(Cl)c2)nn(-c2ccc(CCN3C4CCC3CC(O)C4)cc2)c1=O (centres unmarked) [Aa-8, 2-[3-(3-Chlorophenyl)-1-{4-[2-(3-hydroxy-8-azabicyclo[3.2.1]oct-8-yl)ethyl]phenyl}-5-oxo-1,5-dihydro-4H-1,2,4-triazol-4-yl]-N-(propan-2-yl)acetamide] | 0.0041 | 0.023 |  |
| CC(C)NC(=O)Cn1c(-c2ccc(F)c(Cl)c2)nn(-c2ccc(CCN3C4CCC3CC(O)C4)cc2)c1=O (centres unmarked) [Da-6, 2-[3-(3-Chloro-4-fluorophenyl)-1-{4-[2-(3-hydroxy-8-azabicyclo[3.2.1]oct-8-yl)ethyl]phenyl}-5-oxo-1,5-dihydro-4H-1,2,4-triazol-4-yl]-N-(propan-2-yl)acetamide] | 0.0044 |  | 0.012 |
| CC(C)NC(=O)Cn1c(-c2cccc(Cl)c2)nn(-c2ccc(CCN3C4CCC3COC4)cc2)c1=O [Aa-10, 2-[3-(3-Chlorophenyl)-1-{4-[2-(3-oxa-8-azabicyclo[3.2.1]oct-8-yl)ethyl]phenyl}-5-oxo-1,5-dihydro-4H-1,2,4-triazol-4-yl]-N-(propan-2-yl)acetamide] | 0.0047 |  | 0.02 |
| CC(C)NC(=O)Cn1c(-c2ccc(F)c(Cl)c2)nn(-c2ccc(CCN3CCOCC3)cc2)c1=O [Da-2, 2-[3-(3-Chloro-4-fluorophenyl)-1-{4-[2-(morpholin-4-yl)ethyl]phenyl}-5-oxo-1,5-dihydro-4H-1,2,4-triazol-4-yl]-N-(propan-2-yl)acetamide] | 0.0043 | 0.0063 |  |
| CC(C)NC(=O)Cn1c(-c2cccc(Cl)c2)nn(-c2ccc(CC(C)N3C4CCC3COC4)cn2)c1=O (single isomer, unassigned; (-)) [Ad-19-1] | 0.00059 |  |  |
| COc1cc(-c2nn(-c3ccc(CCN4CCC(C#N)CC4)cc3)c(=O)n2CC(=O)NC(C)C)ccc1F [Ca-10, 2-[1-{4-[2-(4-Cyanopiperidin-1-yl)ethyl]phenyl}-3-(4-fluoro-3-methoxyphenyl)-5-oxo-1,5-dihydro-4H-1,2,4-triazol-4-yl]-N-(propan-2-yl)acetamide] | 0.1 to 1 |  |  |

Now from value to compound, other results behind:

| IC50 (Human V1b receptor [1]) [µM] | IC50 (Human V1b receptor [2]; [3]) [µM] | SMILES | IC50 (Human V1b receptor [2]) [µM] |
| --- | --- | --- | --- |
| 0.0086 | 0.0093 | CC(C)NC(=O)Cn1c(-c2cccc(Cl)c2)nn(-c2ccc(CCN3CCOCC3)cc2)c1=O [Aa-1, 2-[3-(3-Chlorophenyl)-1-{4-[2-(morpholin-4-yl)ethyl]phenyl}-5-oxo-1,5-dihydro-4H-1,2,4-triazol-4-yl]-N-(propan-2-yl)acetamide] |  |
| 0.01 | 0.011 | COc1cc(-c2nn(-c3ccc(CCN4CCOCC4)cc3)c(=O)n2CC(=O)NC(C)C)ccc1F [Ca-2, 2-[3-(4-Fluoro-3-methoxyphenyl)-1-{4-[2-(morpholin-4-yl)ethyl]phenyl}-5-oxo-1,5-dihydro-4H-1,2,4-triazol-4-yl]-N-(propan-2-yl)acetamide] |  |
| 0.019 | 0.03 | COc1cccc(-c2nn(-c3ccc(CCN4CCOCC4)cc3)c(=O)n2CC(=O)NC(C)C)c1 [Ba-2, 2-[3-(3-Methoxyphenyl)-1-{4-[2-(morpholin-4-yl)ethyl]phenyl}-5-oxo-1,5-dihydro-4H-1,2,4-triazol-4-yl]-N-(propan-2-yl)acetamide] |  |
| 0.041 | 0.013 | CC(C)NC(=O)Cn1c(-c2cccc(Cl)c2)nn(-c2ccc(CCN3CCOCC3)cn2)c1=O [Ab-2, 2-[3-(3-Chlorophenyl)-1-{5-[2-(morpholin-4-yl)ethyl]pyridin-2-yl}-5-oxo-1,5-dihydro-4H-1,2,4-triazol-4-yl]-N-(propan-2-yl)acetamide] |  |
| 0.017 | 0.026 | COc1cc(-c2nn(-c3ccc(CCN4CCOCC4)cn3)c(=O)n2CC(=O)NC(C)C)ccc1F [Cb-2, 2-[3-(4-Fluoro-3-methoxyphenyl)-1-{5-[2-(morpholin-4-yl)ethyl]pyridin-2-yl}-5-oxo-1,5-dihydro-4H-1,2,4-triazol-4-yl]-N-(propan-2-yl)acetamide] |  |
| 0.01 to 0.1 |  | COc1cc(-c2nn(-c3ccc(CCN4CCC(C)CC4)cc3)c(=O)n2CC(=O)NC(C)C)ccc1F [Ca-9, 2-[3-(4-Fluoro-3-methoxyphenyl)-1-{4-[2-(4-methylpiperidin-1-yl)ethyl]phenyl}-5-oxo-1,5-dihydro-4H-1,2,4-triazol-4-yl]-N-(propan-2-yl)acetamide] |  |
| 0.015 |  | CC(NC(=O)Cn1c(-c2cccc(Cl)c2)nn(-c2ccc(CCN3CCOCC3)cc2)c1=O)C(F)(F)F (centres unmarked) [Ad-2, 2-[3-(3-Chlorophenyl)-1-{4-[2-(morpholin-4-yl)ethyl]phenyl}-5-oxo-1,5-dihydro-4H-1,2,4-triazol-4-yl]-N-(1,1,1-trifluoropropan-2-yl)acetamide] |  |
| 0.1 to 1 |  | COc1cc(-c2nn(-c3ccc(CCN4CCC(NC(C)=O)CC4)cc3)c(=O)n2CC(=O)NC(C)C)ccc1F [Ca-17, 2-[1-(4-{2-[4-(Acetylamino)piperidin-1-yl]ethyl}phenyl)-3-(4-fluoro-3-methoxyphenyl)-5-oxo-1,5-dihydro-4H-1,2,4-triazol-4-yl]-N-(propan-2-yl)acetamide] |  |
